# How the values were obtained:
# WT A549 cells = assay: Cell death assay, IncuCyte real-time imaging, dual dye; format: cell-based; details: up to 70 hrs
# Method: (§1) Cell lines and viruses. Human A549 cells (ATCC® CCL-185™) validated by STR analysis were cultured in RPMI 1640 medium (Gibco) supplemented with 10% fetal bovine serum (FBS), 100U/ml penicillin and 100 μg/ml streptomycin. PC3, DU145 and C4-2 cells were grown in RPMI with 10% FBS. HAEC, BEAS 2B and BETA cells were grown in LHC-8 (Biofluids/Biosource, catalog #P141-500) supplemented with 0.1% epinehrin (Biofluids/Biosource, catalog #355-002), 3.3 mM retinoic acid (Biofluids/Biosource, catalog #348-001) and penicillin-streptomycin-fungizone (Invitogen, catalog #15240-062) and were a gift from Drs. Suzy Comhair and Serpil Erzurum (Cleveland Clinic).
# (§2) Cells (20,000 per well) were seeded in 24-well plates or 8,000 cells per well in 96-well plates and treated as stated in figure legends. The cells were incubated with 250 nM Sytox-Green dye (Thermo Fisher), a nucleic acid stain that is an indicator of dead cells and which is impermeant to live cells, and 250 nM of cell permeable dye Syto™ 60-Red (ThermoFisher), which allows quantification of the total number of cells present in each field, using an IncuCyte Live-Cell Imaging System and software (Essen Instruments 2015A) for 72 hours. Cell death was measured by counting the green objects per/well (dead cells, green) and then normalizing to the total number of cells per/well (red objects) at each time point using IncuCyte software.
# RNase L KO A549 cells = assay: as above; format: cell-based, human; details: DAC, up to 70 hrs
# Method: as §1
# The A549 RNase L KO cells were described previously. Additional knockout cells were generated using the CRISPR Cas9 system. The sgRNA sequences were chosen from a published database. The guide RNA sequences were synthesized as DNA oligonucleotides by IDT. Primers were annealed, phosphorylated and ligated into vector LentiCRISPR v2 (Addgene 52961) that was prepared by digestion with BsmBI. The resulting plasmids were transformed into Stbl3 chemically competent cells (Invitrogen) and grown on a bacterial culture plate at 37° C. Colonies were screened by PCR using the U6 primer and gene specific reverse primer to generate approximately 300 bp product. Positive clones were cultured and plasmid DNA was prepared and sequence verified using the U6 primer. The AKAP7 sgRNA sequences are: sgAKAP7-2 FW CACCGTGAGCGACTGGCCAAAGCAA (SEQ ID NO:1) and sgAKAP7-2 REV AAACTTGCTTTGGCCAGTCGCTCA C (SEQ ID NO:2). The PDE12 sgRNA sequences are: sgPDE12_10.FW CACCGGGATGCCTGGCAAGACGGCG (SEQ ID NO:3) and sgPDE12_10.REV AAACCGCCGTCTTGCCAGGCATCCC (SEQ ID NO:4). Cell cloning was done by limited dilution. The CRISPR vector, pLenti-sgRL-6, was used to knockout RNase L in PC3 cells as we described for RNase L KO A549 cells. To obtain the PDE12/AKAP7 DKO cells, a PDE12 knockout A549 cell line was infected with pseudo lentiviruses expression sgRNA for AKAP7 followed by single cell cloning. The PDE12/RNase L DKO cells were obtained by infecting the RNase L KO A549 cells with the pseudo lentivirus expressing sgRNA for […] followed by single cell cloning. Resulting clones were screened for knock-out of expression using Western Blots with anti-PDE12 antibody (Abcam ab87738), anti-AKAP7 (Proteintech: Cat#12591-1-AP) antibody or monoclonal antibody against human RNase L [13].
# as §2
smiles,measurement,setting,value
"Nc1ncn([C@H]2C[C@H](O)[C@@H](CO)O2)c(=O)n1 [DAC, 5-aza-2′-deoxycytidine]",cell survival,WT A549 cells; 25 uM DAC,56%
same,cell survival,WT A549 cells; 50 uM DAC,47%
same,sensitivity to DAC relative to AZA,WT A549 cells,less sensitive
same,effect on survival,RNase L KO A549 cells,no effect
